# According to ChEMBL document CHEMBL3576778, “Structure-Activity Relationship Studies of a Series of Semisynthetic Lipopeptides Leading to the Discovery of Surotomycin, a Novel Cyclic Lipopeptide Being Developed for the Treatment of Clostridium difficile-Associated Diarrhea” (J Med Chem, 2015):
# Key:
# [1] = test system: Bacteroides fragilis; assay: Toxicity against Bacteroides fragilis assessed as inhibition of microbe growth; assay type: organism-based
# [2] = test system: Clostridioides difficile; assay: Antimicrobial activity against daptomycin-resistant Clostridium difficile ATCC 43596 infected in Syrian golden hamster model of Clostridium difficile-associated diarrhea assessed as protection against microbial infection by measuring survival at day 25 to 26 at 0.5 mg/kg treated once daily for 5 consecutive days starting 4 hrs after spore inoculation; assay type: functional
# [3] = test system: Clostridioides difficile; assay: Antimicrobial activity against vancomycin-resistant Clostridium difficile; assay type: functional
# [4] = test system: Clostridioides difficile; assay: Antimicrobial activity against metronidazole-resistant Clostridium difficile; assay type: functional
structure (smiles),measurement,setting,value
CCCCCc1ccc(/C(C)=C/C(=O)N[C@@H](Cc2c[nH]c3ccccc23)C(=O)N[C@H](CC(N)=O)C(=O)N[C@@H](CC(=O)O)C(=O)N[C@@H]2C(=O)NCC(=O)N[C@@H](CCCN)C(=O)N[C@@H](CC(=O)O)C(=O)N[C@H](C)C(=O)N[C@@H](CC(=O)O)C(=O)NCC(=O)N[C@H](CO)C(=O)N[C@@H]([C@@H](C)CC(=O)O)C(=O)N[C@@H](CC(=O)c3ccccc3N)C(=O)O[C@@H]2C)cc1,MIC,[1],>= 8192 ug ml-1
CN[C@H](CC(C)C)C(=O)N[C@H]1C(=O)N[C@@H](CC(N)=O)C(=O)N[C@H]2C(=O)N[C@H]3C(=O)N[C@H](C(=O)N[C@H](C(=O)O)c4cc(O)cc(O)c4-c4cc3ccc4O)[C@H](O)c3ccc(c(Cl)c3)Oc3cc2cc(c3O[C@@H]2O[C@H](CO)[C@@H](O)[C@H](O)[C@H]2O[C@H]2C[C@](C)(N)[C@H](O)[C@H](C)O2)Oc2ccc(cc2Cl)[C@H]1O [VANCOMYCIN],survival at 0.5 mg/kg,[2],25%
same,MIC,[3],≥ 4 µg/mL
Cc1ncc([N+](=O)[O-])n1CCO [METRONIDAZOLE],MIC,[4],≥ 8 µg/mL
